# Tested on: E. coli ATCC 25922
# Experiment: Digital AST by LVSi single-cell division tracking, pure E. coli samples
# Format: cell-based
# Settings: for bacterial cell growth (normalized cumulative division events) versus control: different batches of E. coli; for average counting number of cell spots during 5-min video: 37° C., stationary phase cells
# Description: E. coli ATCC 25922 were purchased from American Type Culture Collection (ATCC) and stored at −80° C. in 5% glycerol. Antibiotics, including ciprofloxacin and ampicillin were purchased from Sigma-Aldrich. The antibiotic powders were stored in the dark at 2 to 8° C. Frozen E. coli strains were thawed, and 50 μL of the cells were cultured in 5 mL of Luria-Bertani (LB) medium (per liter: 10 g peptone 140, 5 g yeast extract, and 5 g sodium chloride) at 37° C. and 150 rpm for 15 h. Then the overnight cultured E. coli was inoculated into LB broth directly. After dilution to appropriate cell concentrations, antibiotics were added to the E. coli suspensions.
# The dual channel LVSi system depicted in FIG. 1A was used, with two 800 mW, 780 nm infrared (IR) LEDs (M780LP1, Thorlabs, Inc., USA), each with collimating and focusing lenses and a central blocking aperture to focus a ring-shaped illumination through the sample or the reference cuvettes. Wide-view and deep field depth scattering images were recorded by two CMOS cameras (BFS-U3-16S2M-CS, Point Grey Research Inc., Canada) at 10 fps through two 2×variable zoom lens (NAVITAR 12×, Navitar, USA), for the sample and reference cuvettes, respectively. The image volume was determined by the viewing size and focal depth of the optics. For these experiments, the viewing area of 2.5 mm×1.9 mm×1.0 mm was equivalent to 4.8 μL at 2.0× magnifying power. The imaging system was enclosed in a thermally isolated housing with a controlled temperature (37° C.).
# Individual cells recorded by LVSi are resolved as bright spots. Before division tracking, each spot was detected with a Laplacian of Gaussian (LoG) filter with defined radius and threshold. Then, the spots from adjacent time frames were connected with a Karman filter for directional linking. So each bright spot became a single-cell trajectory. To track the division events, the newly appeared cell trajectories (those from the image edges excluded) were first filtered out as the child trajectory candidates, and for each child trajectory candidate, the nearby old trajectories (appeared before the child trajectory candidate) were checked. If there was a close-by old trajectory split at the start time of the child trajectory candidate, a potential division event was tracked. To filter out the merge/crossing induced splitting, the spots merging events were also checked and were filtered out from the potential division events. Finally, an intensity filter was used to evaluate the remaining division events, ensuring the parent cell intensity is about the summation of the two divided child ones, and the two child ones are similar in size.
# To validate that the tracked division events were due to real cell growth, rather than an artifact of the particle merging or crossing, a division over-counting calibration test was designed. To rule out the real division events, the E. coli cells were heated at ˜65° C. for 15 min. Then, each 5-min video of the heated E. coli cells with different concentrations (2.0×10^4˜2.0×10^5 CFU/mL, corresponding to 100-1000 spots in image view) were analyzed for single-cell division tracking. Each concentration test was repeated three times. Then, the division over-counting calibration curve was extracted from the tracking results. The division over-counting is less an issue when the cell number is below 500, corresponding to the bacterial concentration of about 1.0×10^5 CFU/mL. When the cell number is above 500, some miss-counting of division events occurred. To rule out the cell density induced division over-counting, the final division events in all clinical samples were calibrated by subtracting the cell density associated over counted division events.
# The statistical error of the division tracking was estimated by the mentioned division over-counting calibration. […]
Compound,"cumulative division events growth curve compared with control (2 μg/mL ciprofloxacin, 60 min (FIG. 4F))","bacterial cell growth (normalized cumulative division events) versus control (2 μg/mL ciprofloxacin, 60 min (FIG. 5A, 5B))","average counting number of cell spots during 5-min video (2 μg/mL ciprofloxacin, snapshot at 5 min)","average counting number of cell spots during 5-min video (2 μg/mL ciprofloxacin, snapshot at 30 min)","average counting number of cell spots during 5-min video (2 μg/mL ciprofloxacin, snapshot at 60 min)","bacterial cell growth (normalized cumulative division events) versus control (16 μg/mL ampicillin, 60 min (FIG. 5C, 5D))"
O=C(O)c1cn(C2CC2)c2cc(N3CCNCC3)c(F)cc2c1=O [ciprofloxacin],no obvious increases in the growth curve,clear inhibition in bacterial cell growth,118±8,114±5,106±4,–
CC1(C)S[C@@H]2[C@H](NC(=O)[C@H](N)c3ccccc3)C(=O)N2[C@H]1C(=O)O [ampicillin],–,–,–,–,–,clear inhibition in bacterial cell growth

# Reference: patent US20230230249A1, “DIGITAL ANTIMICROBIAL SUSCEPTIBILITY TESTING” (ARIZONA BOARD OF REGENTS ON BEHALF OF ARIZONA STATE …, priority 2020, published 2023)
